# Like-named read-outs stand apart in the source and are kept apart here.
# Assays:
# [1] = test system: Geobacillus caldoxylosilyticus GcL (SEQ ID NO: 1) variant GcL 4 (C147S/H178D/L183E/M244A); assay: Lactonase assay of variant GcL 4; assay type: biochemical; details: for catalytic proficiency compared with the wt enzyme: GcL 4 vs GcL wt
# Procedure: (§1) Kinetic measurements. The determination of GcL catalytic efficiency was performed by using a microplate reader (Synergy HTX, BioTek, USA) and the software Gen5.1 over a range of substrates (FIG. 2). The reactions were operate in a 96-well plate at a path length of 5.8 mm for a 200 μl reaction volume at room temperature. The catalytic parameters were achieved by fitting the data to Michaelis-Menten equation with the Graph-Pad Prism 5 software. When, Vmax was not reached, the catalytic efficiency was determined by fitting the linear part of Michaelis-Menten plot to a linear regression using Graph-Pad Prism 5.
# (§2) Lactonase assay. The AHL lactonolysis consisting in the opening of the lactone ring generates a proton, and leads to an acidification of the media. This property allowed the characterization of the lactonases by using a pH indicator assay. To perform the experiment 5 μl of enzyme were added to a solution containing 10 μl of substrates at various concentrations and 185 μl of lactonase buffer (2.5 mM Bicine pH 8.3, 150 mM NaCl, 0.2 mM CoCl2, 0.2 mM cresol purple, 0.5% DMSO). This assay was performed at 25° C. and the time course of the lactones hydrolysis was recorded at 577 nm. The characterization of the enzyme was proceeding against a large panel of AHLs: C4-AHL, C6-AHL, C8-AHL, C10-AHL, 3-oxo-C8-AHL and against γ-Butyrolactone, γ-Heptalactone, γ-Nonalactone, γ-Decanolactone, δ-Valerolactone, δ-Octanolactone, δ-Nonalactone, δ-Decalactone, ε-Caprolactone, ε-Decalactone, Whiskey lactone.
# We determined the ability of these two variants to hydrolyze a wide range of lactones as substrates, using the assay described in the previous chapter. GcL 4 was assayed against substrates C4 AHIL, C8 AHIL, 3-oxo-C8 AHL, 3-oxo-C12 AHL, γ-Butyrolactone, γ-Nonalactone, γ-Decanolactone, δ-Valerolactone, δ-Octanolactone, δ-Decalactone, ε-Caprolactone, ε-Decalactone and Whiskey Lactone, while GcL […] was assayed against C4 AHL, C8 AHL, 3-oxo-C8 AHL, 3-oxo-C12 AHIL, γ-Butyrolactone, γ-Heptalactone, γ-Nonalactone, γ-Decanolactone, δ-Valerolactone, δ-Nonalactone, δ-Decalactone, ε-Caprolactone, ε-Decalactone and Whiskey Lactone (Table 6).
# [2] = test system: Geobacillus caldoxylosilyticus lactonase GcL, wild type, SEQ ID NO: 1; assay: Lactonase assay (pH indicator, cresol purple) of GcL wt; assay type: biochemical; details: 25° C., pH 8.3; Table 4, substrates without asterisk
# Procedure: as §1, §2
# [3] = test system: Geobacillus caldoxylosilyticus GcL (SEQ ID NO: 1) variant GcL 14 (Q41P/S66A/S81A/T91S/R111K/F141/A144T/C147S/V1751/H178D/I182L/L183E/M244A/N245K); assay: Lactonase assay of variant GcL 14; assay type: biochemical; details: for catalytic proficiency compared with the wt enzyme: GcL 14 vs GcL wt
# [4] = test system: Geobacillus caldoxylosilyticus lactonase GcL, wild type, SEQ ID NO: 1; details: cited from earlier work
# [5] = Table 4, substrates marked *, Data from^17
SMILES,"Km ([1]; GcL 4, Table 6) [µM]","kcat ([1]; GcL 4, Table 6) [s⁻¹]",catalytic proficiency compared with the wt enzyme [1],Km [2] [µM],kcat [2] [s⁻¹],"Km ([3]; GcL 14, Table 6) [µM]","kcat ([3]; GcL 14, Table 6) [s⁻¹]",catalytic proficiency compared with the wt enzyme [3],Km ([1]; GcL 4) [µM],Km ([3]; GcL 14) [µM],"Km [4, 5] [µM]","kcat [4, 5] [s⁻¹]","Km ([4]; wt enzyme, C4 AHL marked * (ref 17) in Table 4) [µM]"
CCCCCC1CCC(=O)O1 (centres unmarked) [γ-Nonalactone],2.54 ± 0.97,18.3 ± 0.90,similar,11.6 ± 3.1,18.14 ± 0.9,9.09 ± 2.2,23.61 ± 1.40,similar,,,,,
CCCCC1CCCCC(=O)O1 (centres unmarked) [ε-Decalactone],1.41 ± 0.3,6.3 ± 0.29,similar,1.05 ± 0.38,1.01 ± 0.04,7.98 ± 2.47,10.41 ± 0.85,similar,,,,,
CCCCCCCC(=O)N[C@H]1CCOC1=O [C8-AHL],0.81 ± 0.2,,,3.12 ± 0.75,1.29 ± 0.04,1.32 ± 0.34,18.38 ± 0.86,,,,,,
CCCCCC1CCCC(=O)O1 (centres unmarked) [δ-Decalactone],5.54 ± 0.13,10.28 ± 0.76,similar,3.13 ± 0.9,4.1 ± 0.18,0.32 ± 0.14,13.7 ± 0.73,similar,,,,,
CCCC(=O)N[C@H]1CCOC1=O [C4-AHL],0.75 ± 0.24,18.25 ± 0.85,,,,0.92 ± 0.27,15.01 ± 0.61,,~1,~1,229 ± 57,19.06 ± 1.51,~230
O=C1CCCCO1 [δ-Valerolactone],3.13 ± 0.1,11.94 ± 1.03,,5.67 ± 0.94,1.27 ± 0.03,1.12 ± 0.12,22.13 ± 0.41,,,,,,
CCCCCC(=O)CC(=O)N[C@H]1CCOC1=O [3-oxo-C8-AHL],1.09 ± 0.28,76.4 ± 3.87,,,,0.29 ± 0.08,76.00 ± 4.04,,,,2.19 ± 0.37,9.48 ± 0.35,
CCCCC1OC(=O)CC1C (centres unmarked) [Whiskey lactone],,8.4 ± 0.39,similar,0.67 ± 0.21,9.34 ± 0.39,14 ± 3.74,7.98 ± 0.63,similar,,,,,
CCCCCCCCCC(=O)CC(=O)N[C@H]1CCOC1=O [3-oxo-C12 AHL],,,,,,0.5 ± 0.12,15.88 ± 0.45,,,,,,
O=C1CCCO1 [γ-Butyrolactone],1.99 ± 0.45,8.42 ± 0.42,,21.1 ± 7.6,2.49 ± 0.15,5.9 ± 1.67,9.89 ± 0.75,,,,,,

# Source: patent US20220154156A1, “PROTEINS AND METHODS FOR DISRUPTING BACTERIAL COMMUNICATION” (REGENTS OF THE UNIVERSITY OF MINNESOTA, priority 2019, published 2022)
